Measurements taken from ChEMBL document CHEMBL3885881, “DrugMatrix”.

Species on record: Rattus norvegicus
Experiment: DrugMatrix - Regimen: Daily Repeat
Format: toxicity, organism-based, Sprague-Dawley
Parameters: regimen Daily Repeat, gender Male, age 6-8 weeks
Conditions: in vivo, po, route oral GAVAGE, […]; for ABSOLUTE BASOPHIL / ABSOLUTE EOSINOPHIL / ABSOLUTE LYMPHOCYTE / ABSOLUTE MONOCYTE / ABSOLUTE SEGMENTED NEUTROPHIL / BASOPHIL / EOSINOPHIL / ERYTHROCYTE COUNT / HEMATOCRIT / HEMOGLOBIN / LEUKOCYTE COUNT / LYMPHOCYTE / MEAN CORPUSCULAR HEMOGLOBIN / MEAN CORPUSCULAR HEMOGLOBIN CONCENTRATION / MEAN CORPUSCULAR VOLUME / MONOCYTE / NEUTROPHIL / NUCLEATED RED BLOOD CELLS / PLATELET COUNT: tissue Blood; for ALANINE AMINOTRANSFERASE / ALBUMIN / ALKALINE PHOSPHATASE / ASPARTATE AMINOTRANSFERASE / BLOOD UREA NITROGEN / CARBON DIOXIDE / CHLORIDE / CHOLESTEROL / CREATINE PHOSPHOKINASE / CREATININE / GLUCOSE / LACTATE DEHYDROGENASE / LIPASE / PHOSPHORUS / POTASSIUM / SODIUM / TOTAL BILIRUBIN / TOTAL PROTEIN / URIC ACID: tissue Plasma
[1] = 0 mg/kg, 72 h, dose level Control, time 3 day
[2] = 0 mg/kg, 120 h, dose level Control, time 5 day
[3] = 43 mg/kg, 72 h, dose level Low, time 3 day
[4] = 43 mg/kg, 120 h, dose level Low, time 5 day

## Clc1ccc(COC(Cn2ccnc2)c2ccc(Cl)cc2Cl)cc1 (configuration not stated) [ECONAZOLE]
[1]
  ABSOLUTE BASOPHIL: 0 CELLS/uL
  ABSOLUTE EOSINOPHIL: 0 CELLS/uL
  ABSOLUTE LYMPHOCYTE: 7601 CELLS/uL
  ABSOLUTE MONOCYTE: 354.33 CELLS/uL
  ABSOLUTE SEGMENTED NEUTROPHIL: 744.67 CELLS/uL
  BASOPHIL: 0%
  EOSINOPHIL: 0%
  ERYTHROCYTE COUNT: 5.03 x10E6/uL
  HEMATOCRIT: 33.7%
  HEMOGLOBIN: 13.43 G/DL
  LEUKOCYTE COUNT: 8.7 x10E3/uL
  LYMPHOCYTE: 86.33%
  MEAN CORPUSCULAR HEMOGLOBIN: 26.7 pg
  MEAN CORPUSCULAR HEMOGLOBIN CONCENTRATION: 39.83 G/DL
  MEAN CORPUSCULAR VOLUME: 67 fL
  MONOCYTE: 4.67%
  NEUTROPHIL: 9%
  NUCLEATED RED BLOOD CELLS: 0 /100WBC
  PLATELET COUNT: 1151 x10E3/uL
  ALANINE AMINOTRANSFERASE: 97.67 u/L
  ALBUMIN: 4.07 G/DL
  ALKALINE PHOSPHATASE: 607.67 u/L
  ASPARTATE AMINOTRANSFERASE: 101 u/L
  BLOOD UREA NITROGEN: 13.33 mg/dL
  CARBON DIOXIDE: 36 mmol/L
  CHLORIDE: 99.67 MEQ/L
  CHOLESTEROL: 75.67 mg/dL
  CREATINE PHOSPHOKINASE: 279.67 u/L
  CREATININE: 0.16 mg/dL
  GLUCOSE: 164 mg/dL
  LACTATE DEHYDROGENASE: 115 u/L
  LIPASE: 12.67 u/L
  PHOSPHORUS: 8.77 mg/dL
  POTASSIUM: 5.79 MEQ/L
  SODIUM: 142.83 MEQ/L
  TOTAL BILIRUBIN: 0.27 mg/dL
  TOTAL PROTEIN: 5.8 G/DL
  URIC ACID: 0.67 mg/dL
[2]
  ABSOLUTE BASOPHIL: 0 CELLS/uL
  ABSOLUTE EOSINOPHIL: 0 CELLS/uL
  ABSOLUTE LYMPHOCYTE: 4426.33 CELLS/uL
  ABSOLUTE MONOCYTE: 102.67 CELLS/uL
  ABSOLUTE SEGMENTED NEUTROPHIL: 337.67 CELLS/uL
  BASOPHIL: 0%
  EOSINOPHIL: 0%
  ERYTHROCYTE COUNT: 5.31 x10E6/uL
  HEMATOCRIT: 32.5%
  HEMOGLOBIN: 13.17 G/DL
  LEUKOCYTE COUNT: 4.87 x10E3/uL
  LYMPHOCYTE: 90.33%
  MEAN CORPUSCULAR HEMOGLOBIN: 24.93 pg
  MEAN CORPUSCULAR HEMOGLOBIN CONCENTRATION: 40.67 G/DL
  MEAN CORPUSCULAR VOLUME: 61.33 fL
  MONOCYTE: 2.33%
  NEUTROPHIL: 7.33%
  NUCLEATED RED BLOOD CELLS: 0.33 /100WBC
  PLATELET COUNT: 848.33 x10E3/uL
  ALANINE AMINOTRANSFERASE: 59.67 u/L
  ALBUMIN: 3.87 G/DL
  ALKALINE PHOSPHATASE: 452 u/L
  ASPARTATE AMINOTRANSFERASE: 81.33 u/L
  BLOOD UREA NITROGEN: 13.67 mg/dL
  CARBON DIOXIDE: 26.33 mmol/L
  CHLORIDE: 103.67 MEQ/L
  CHOLESTEROL: 65.67 mg/dL
  CREATINE PHOSPHOKINASE: 355.33 u/L
  CREATININE: 0.14 mg/dL
  GLUCOSE: 171.33 mg/dL
  LACTATE DEHYDROGENASE: 118 u/L
  LIPASE: 11.33 u/L
  PHOSPHORUS: 11.13 mg/dL
  POTASSIUM: 5.18 MEQ/L
  SODIUM: 143.17 MEQ/L
  TOTAL BILIRUBIN: 0.2 mg/dL
  TOTAL PROTEIN: 5.87 G/DL
  URIC ACID: 0.63 mg/dL
[3]
  ABSOLUTE BASOPHIL: 0 CELLS/uL
  ABSOLUTE EOSINOPHIL: 68.67 CELLS/uL
  ABSOLUTE LYMPHOCYTE: 8555.33 CELLS/uL
  ABSOLUTE MONOCYTE: 189.33 CELLS/uL
  ABSOLUTE SEGMENTED NEUTROPHIL: 653.33 CELLS/uL
  BASOPHIL: 0%
  EOSINOPHIL: 0.67%
  ERYTHROCYTE COUNT: 4.93 x10E6/uL
  HEMATOCRIT: 32.1%
  HEMOGLOBIN: 12.8 G/DL
  LEUKOCYTE COUNT: 9.47 x10E3/uL
  LYMPHOCYTE: 90.67%
  MEAN CORPUSCULAR HEMOGLOBIN: 25.97 pg
  MEAN CORPUSCULAR HEMOGLOBIN CONCENTRATION: 39.9 G/DL
  MEAN CORPUSCULAR VOLUME: 65.1 fL
  MONOCYTE: 2%
  NEUTROPHIL: 6.67%
  NUCLEATED RED BLOOD CELLS: 0 /100WBC
  PLATELET COUNT: 1050.67 x10E3/uL
  ALANINE AMINOTRANSFERASE: 100.33 u/L
  ALBUMIN: 3.8 G/DL
  ALKALINE PHOSPHATASE: 429 u/L
  ASPARTATE AMINOTRANSFERASE: 104.67 u/L
  BLOOD UREA NITROGEN: 11.33 mg/dL
  CARBON DIOXIDE: 37.67 mmol/L
  CHLORIDE: 107 MEQ/L
  CHOLESTEROL: 72.33 mg/dL
  CREATINE PHOSPHOKINASE: 331 u/L
  CREATININE: 0.19 mg/dL
  GLUCOSE: 156.67 mg/dL
  LACTATE DEHYDROGENASE: 94 u/L
  LIPASE: 10.33 u/L
  PHOSPHORUS: 9.27 mg/dL
  POTASSIUM: 5.1 MEQ/L
  SODIUM: 138.9 MEQ/L
  TOTAL BILIRUBIN: 0.13 mg/dL
  TOTAL PROTEIN: 5.6 G/DL
  URIC ACID: 0.57 mg/dL
[4]
  ABSOLUTE BASOPHIL: 0 CELLS/uL
  ABSOLUTE EOSINOPHIL: 31.33 CELLS/uL
  ABSOLUTE LYMPHOCYTE: 7327.67 CELLS/uL
  ABSOLUTE MONOCYTE: 294.67 CELLS/uL
  ABSOLUTE SEGMENTED NEUTROPHIL: 379.67 CELLS/uL
  BASOPHIL: 0%
  EOSINOPHIL: 0.33%
  ERYTHROCYTE COUNT: 5.33 x10E6/uL
  HEMATOCRIT: 33.3%
  HEMOGLOBIN: 13 G/DL
  LEUKOCYTE COUNT: 8.03 x10E3/uL
  LYMPHOCYTE: 91%
  MEAN CORPUSCULAR HEMOGLOBIN: 24.4 pg
  MEAN CORPUSCULAR HEMOGLOBIN CONCENTRATION: 39.07 G/DL
  MEAN CORPUSCULAR VOLUME: 62.47 fL
  MONOCYTE: 3.67%
  NEUTROPHIL: 5%
  NUCLEATED RED BLOOD CELLS: 0 /100WBC
  PLATELET COUNT: 1117.67 x10E3/uL
  ALANINE AMINOTRANSFERASE: 59 u/L
  ALBUMIN: 3.97 G/DL
  ALKALINE PHOSPHATASE: 377.67 u/L
  ASPARTATE AMINOTRANSFERASE: 79 u/L
  BLOOD UREA NITROGEN: 12.33 mg/dL
  CARBON DIOXIDE: 28.67 mmol/L
  CHLORIDE: 104.33 MEQ/L
  CHOLESTEROL: 71.33 mg/dL
  CREATINE PHOSPHOKINASE: 198.33 u/L
  CREATININE: 0.22 mg/dL
  GLUCOSE: 162 mg/dL
  LACTATE DEHYDROGENASE: 63 u/L
  LIPASE: 12.33 u/L
  PHOSPHORUS: 10.33 mg/dL
  POTASSIUM: 5.68 MEQ/L
  SODIUM: 144.73 MEQ/L
  TOTAL BILIRUBIN: 0.17 mg/dL
  TOTAL PROTEIN: 5.93 G/DL
  URIC ACID: 0.5 mg/dL
